In patent US4187245A, “Hydroxypropylene-amino-phosphonic-sulfonic acids” (Petrolite Corporation, priority 1978, dated 1980):
Counter-ions that a name gives are not always drawn.

Experiments:
[1] = Calcium Scale Inhibition Test; conditions: 180° F., samples at 2 and 4 hours
Protocol: Calcium Scale Inhibition Test
The procedure utilized to determine the effectiveness of scale inhibitors in regard to calcium scale is as follows:
Several 50 ml. samples of a 0.04 sodium bicarbonate solution are placed in 100 ml. bottles. To these solutions is added the inhibitor in various known concentrations. 50 ml. samples of a 0.02 M CaCl2 solution are then added.
A total hardness determination is then made on the 50--50 mixture utilizing the well known Schwarzenbach titration. The samples are placed in a water bath and heated at 180° F. 10 ml. samples are taken from each bottle at 2 and 4 hour periods. These samples are filtered through millipore filters and the total hardness of the filtrates are determined by titration. [formula]

[2] = prior-art background; cited from earlier work

Row | SMILES | % Inhibition (Calcium Scale Inhibition) ([1]; 50 ppm) | % Inhibition (Calcium Scale Inhibition) ([1]; 25 ppm) | further results
1 | NCCNCC(O)CS(=O)(=O)O (stereo not drawn) [Example 7] | 50% |  | 
2 | O=S(=O)(O)CC(O)CNCCNCC(O)CS(=O)(=O)O (stereo not drawn) [Example 8] | 45% |  | 
3 | NCCNCCNCC(O)CS(=O)(=O)O (stereo not drawn) [Example 9] | 45% |  | 
4 | O=S(=O)(O)CC(O)CNCCNCCNCC(O)CS(=O)(=O)O (stereo not drawn) [Example 10] |  | 45% | 
5 | O=P(O)(O)CN(CCN(CP(=O)(O)O)CP(=O)(O)O)CC(O)CS(=O)(=O)O (stereo not drawn) [Example 16] |  | 100% | % Inhibition (Calcium Scale Inhibition) ([1]; 10 ppm): 91%
6 | O=P(O)(O)CN(CCN(CC(O)CS(=O)(=O)O)CP(=O)(O)O)CC(O)CS(=O)(=O)O (stereo not drawn) [Example 17] | 100% | 96% | % Inhibition (Calcium Scale Inhibition) ([1]; 15 ppm): 72%
7 | O=P(O)(O)CN(CCN(CC(O)CS(=O)(=O)O)CP(=O)(O)O)CCN(CC(O)CS(=O)(=O)O)CP(=O)(O)O (stereo not drawn) [Example 19] | 100% | 86% | 
8 | O=C(O)CN(CCN(CC(=O)O)CC(=O)O)CC(=O)O [ethylenediamine tetracetic acid salts] |  |  | threshold activities [2]: no threshold activities
